Assays:
Caco-2 = experiment: Cytotoxicity against human Caco-2 cells assessed as reduction in cell viability at 10 to 100 uM incubated for 48 hrs by MTT assay; assay type: toxicity, cell-based; conditions: caco-2, 48 h, dose 10-100 µM
RAW264.7 [1] = experiment: Cytotoxicity against LPS-stimulated mouse RAW264.7 cells assessed as reduction in cell viability at 10 to 100 uM incubated for 20 hrs by MTT assay; assay type: toxicity, cell-based; conditions: raw264.7, 20 h, dose 10-100 µM
RAW264.7 [2] = experiment: Antiinflammatory activity in mouse RAW264.7 cells assessed as inhibition of LPS-induced NO production at 100 uM incubated for 20 hrs by Griess reagent based assay relative to control; assay type: functional
RAW264.7 [3] = experiment: Antiinflammatory activity in mouse RAW264.7 cells assessed as inhibition of LPS-induced NO production incubated for 20 hrs by Griess reagent based assay; assay type: functional, cell-based; conditions: dose 10-100 µM, DDE = dose-dependent effect

With `CC1=C(CO)[C@H](C)C[C@@H]2C[C@](C)(C(=O)O)C=C12` the Activity (Caco-2) was “Non-Toxic”, the Activity (RAW264.7 [1]) was “Non-Toxic” and the inhibition at 100 µM (RAW264.7 [2]) was 34.8%. The Activity (RAW264.7 [3]) was “Dde”.
`CC1=C2C[C@@](C)(C(=O)O)C[C@H]2C[C@]2(C)C[C@H](O)[C@]12O` was tested, and the Activity (Caco-2) was “Non-Toxic”, the Activity (RAW264.7 [1]) was “Non-Toxic” and the inhibition at 100 µM (RAW264.7 [2]) was 36.4%. The Activity (RAW264.7 [3]) was “Dde”.
`CC1=C2C[C@@](C)(C(=O)O)C[C@H]2C[C@@H](CO)C12CC2` was tested, and the Activity (Caco-2) was “Non-Toxic”, the Activity (RAW264.7 [1]) was “Non-Toxic” and the Activity (RAW264.7 [3]) was “Dde”.
For `CC1=C2C[C@@](C)(C(=O)O)C[C@H]2C[C@]2(C)CC[C@]12O`, the Activity (Caco-2) was “Non-Toxic”, the Activity (RAW264.7 [1]) was “Non-Toxic” and the Activity (RAW264.7 [3]) was “Dde”.
For `CC1=C2C[C@@](C)(C(=O)O)C[C@H]2C[C@]2(CO)CC[C@]12O`, the Activity (Caco-2) was “Non-Toxic”, the Activity (RAW264.7 [1]) was “Non-Toxic” and the Activity (RAW264.7 [3]) was “Dde”.
`C[C@H]1CC[C@H](CO)[C@H](CO)C2=C[C@](C)(CO)C[C@H]21` was tested, and the Activity (Caco-2) was “Non-Toxic”, the Activity (RAW264.7 [1]) was “Non-Toxic” and the inhibition at 100 µM (RAW264.7 [2]) was 38%. The Activity (RAW264.7 [3]) was “Dde”.
With `C[C@H]1CC[C@H](CO)C(CO)=C2[C@H]1CC(C)(C)[C@@H]2O` the Activity (Caco-2) was “Non-Toxic”, the Activity (RAW264.7 [1]) was “Non-Toxic” and the Activity (RAW264.7 [3]) was “Dde”.

From ChEMBL document CHEMBL5143573, “Cyclohumulanoid Sesquiterpenes Induced by the Noncompetitive Coculture of Phellinus orientoasiaticus and Xylodon flaviporus” (J Nat Prod, 2022)
